Measured values: patent US11535670B2, “Combination therapies of HDAC inhibitors and PD-L1 inhibitors” (HUYABIO International, LLC, priority 2016, dated 2022)

Experiments:
[1] = target: T1, HDAC 10 (Homo sapiens, UniProt Q969S8); details: cited from earlier work
T1 sequence (Q969S8 1-669): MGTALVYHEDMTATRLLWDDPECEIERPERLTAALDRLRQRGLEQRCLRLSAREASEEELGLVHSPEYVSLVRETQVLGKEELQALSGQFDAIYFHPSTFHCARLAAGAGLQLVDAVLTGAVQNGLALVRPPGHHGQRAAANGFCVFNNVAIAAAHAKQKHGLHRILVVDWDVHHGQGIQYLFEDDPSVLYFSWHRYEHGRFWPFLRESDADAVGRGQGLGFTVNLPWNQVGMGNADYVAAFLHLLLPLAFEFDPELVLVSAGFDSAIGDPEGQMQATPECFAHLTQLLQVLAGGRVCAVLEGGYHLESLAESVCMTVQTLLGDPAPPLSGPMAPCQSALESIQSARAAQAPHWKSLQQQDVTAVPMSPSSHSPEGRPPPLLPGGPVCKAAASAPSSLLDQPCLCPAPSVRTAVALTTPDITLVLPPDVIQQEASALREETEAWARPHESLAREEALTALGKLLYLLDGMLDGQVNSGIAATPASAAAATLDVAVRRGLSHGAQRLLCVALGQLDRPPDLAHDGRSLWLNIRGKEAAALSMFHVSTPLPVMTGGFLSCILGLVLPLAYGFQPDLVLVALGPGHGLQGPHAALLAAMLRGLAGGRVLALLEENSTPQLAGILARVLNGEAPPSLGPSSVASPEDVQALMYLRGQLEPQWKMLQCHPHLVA

[2] = target: HDAC 1 (Homo sapiens, UniProt Q13547); details: cited from earlier work
[3] = target: T2, HDAC 8 (Homo sapiens, UniProt Q9BY41); details: cited from earlier work
T2 sequence (Q9BY41 1-377): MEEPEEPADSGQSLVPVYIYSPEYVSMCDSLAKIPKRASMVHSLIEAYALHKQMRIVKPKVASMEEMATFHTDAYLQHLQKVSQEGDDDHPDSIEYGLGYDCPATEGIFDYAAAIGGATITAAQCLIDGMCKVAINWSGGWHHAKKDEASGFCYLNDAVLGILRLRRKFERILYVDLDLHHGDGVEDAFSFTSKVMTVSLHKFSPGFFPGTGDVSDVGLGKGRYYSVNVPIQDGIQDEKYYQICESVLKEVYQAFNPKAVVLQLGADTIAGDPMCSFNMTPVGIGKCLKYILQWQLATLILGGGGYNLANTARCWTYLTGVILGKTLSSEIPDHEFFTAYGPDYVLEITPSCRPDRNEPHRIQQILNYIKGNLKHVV

[4] = target: HDAC 3 (Homo sapiens, UniProt O15379); details: cited from earlier work
[5] = system: MC38 murine colon carcinoma; assay: Example 1: tumor growth delay in MC38 syngeneic model, HBI-8000 at two doses alone and with PD-L1 inhibitor antibody; assay type: in vivo, C57BL/6 mice; details: for Median TTE: endpoint 1000 mm^3 or Day 47; for % TGD: versus vehicle
Procedure: In Example 1 HBI-8000 was tested in two doses as monotherapy and in two doses in combination with PD-L1 inhibitor antibody at 5 mg/kg. The experiment included a vehicle-treated group and a PD-L1 inhibitor antibody monotherapy group, which served as control groups for analysis of efficacy. Tumors were measured twice per week until the study was ended on Day 47. Each animal was euthanized when its tumor attained the endpoint tumor volume of 1000 mm^3 or on the final day of the study, whichever came first, and the time to endpoint (TTE) for each mouse was calculated. Treatment response was determined from an analysis of percent tumor growth delay (% TGD), defined as the percent increase in the median time to endpoint (TTE) for treated versus control mice; and by logrank significance of differences in survival among groups and regression responses.
Mice: Female C57BL/6 mice (Charles River Laboratories) were eight weeks old, with a body weight (BW) range of 15.4 to 22.0 grams on Day 1 of the study. The animals were fed ad libitum water (reverse osmosis, 1 ppm Cl), and NIH 31 Modified and Irradiated Lab Diet® consisting of 18.0% crude protein, 5.0% crude fat, and 5.0% crude fiber. The mice were housed on irradiated Enrich-o′cobs™ Laboratory Animal Bedding in static microisolators on a 12-hour light cycle at 20-22° C. (68-72° F.) and 40-60% humidity.
Tumor Cell Culture: MC38 murine colon carcinoma cells were maintained in Dulbecco's Modified Eagle Medium (DMEM) supplemented with 10% fetal bovine serum and 2 mM glutamine, 100 units/mL penicillin G sodium, 100 μg/mL streptomycin sulfate, and 25 μg/mL gentamicin. Cell cultures were maintained in tissue culture flasks in a humidified incubator at 37° C., in an atmosphere of 5% CO2 and 95% air.
Tumor Implantation: Cells were harvested during exponential growth, and resuspended in cold DMEM. Each mouse was inoculated subcutaneously in the right flank with 1×10^6 cells (0.1 mL of cell suspension). Tumors were calipered in two dimensions to monitor growth as their mean volume approached the desired 100-150 mm^3 range. Tumor burden was calculated using the formula:
[formula] • where w=width and l=length, in mm, of the tumor. Tumor weight may be estimated with the assumption that 1 mg is equivalent to 1 mm^3 of tumor volume. […]
Tumor Growth Delay: Tumors were measured using calipers twice per week, and each animal was euthanized when its tumor reached a volume of 1000 mm^3 or at the end of the study (D47), whichever came first. […] The time to endpoint (TTE) for analysis was calculated for each mouse by the following equation: […]

[6] = HBI-8000 20 mg/kg p.o. qd×21, alone or plus anti-PDL-1 5 mg/kg i.p. biwk×3
[7] = HBI-8000 50 mg/kg p.o. qd×21, alone or plus anti-PDL-1 5 mg/kg i.p. biwk×3

Sequence of HDAC 1 (Q13547 whole entry): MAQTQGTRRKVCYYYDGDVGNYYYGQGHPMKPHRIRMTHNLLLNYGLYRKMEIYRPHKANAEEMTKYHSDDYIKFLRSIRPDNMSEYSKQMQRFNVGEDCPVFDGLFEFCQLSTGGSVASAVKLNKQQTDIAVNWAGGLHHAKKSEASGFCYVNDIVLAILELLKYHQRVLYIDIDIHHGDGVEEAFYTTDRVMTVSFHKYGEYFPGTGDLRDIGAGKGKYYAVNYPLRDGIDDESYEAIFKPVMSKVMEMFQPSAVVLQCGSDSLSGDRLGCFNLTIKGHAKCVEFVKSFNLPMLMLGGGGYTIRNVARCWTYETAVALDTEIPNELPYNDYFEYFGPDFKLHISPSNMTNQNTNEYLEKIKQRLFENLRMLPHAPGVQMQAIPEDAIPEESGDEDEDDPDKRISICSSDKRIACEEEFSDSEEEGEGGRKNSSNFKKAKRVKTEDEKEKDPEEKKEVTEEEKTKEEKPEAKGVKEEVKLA
Sequence of HDAC 3 (O15379 whole entry): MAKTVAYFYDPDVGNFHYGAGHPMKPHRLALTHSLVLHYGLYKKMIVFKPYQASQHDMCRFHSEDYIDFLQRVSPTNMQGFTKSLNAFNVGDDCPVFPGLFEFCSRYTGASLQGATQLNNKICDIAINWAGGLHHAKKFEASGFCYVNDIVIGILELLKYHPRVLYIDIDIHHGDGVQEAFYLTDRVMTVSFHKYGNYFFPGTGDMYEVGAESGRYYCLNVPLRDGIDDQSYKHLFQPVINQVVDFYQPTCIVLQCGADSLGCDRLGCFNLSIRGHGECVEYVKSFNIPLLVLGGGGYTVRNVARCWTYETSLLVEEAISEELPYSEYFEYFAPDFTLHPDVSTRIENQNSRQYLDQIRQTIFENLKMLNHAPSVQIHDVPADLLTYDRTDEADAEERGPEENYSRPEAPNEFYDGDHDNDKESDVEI
Sequence of HDAC 3 (Q9Y618 395-489 partner limits assumed): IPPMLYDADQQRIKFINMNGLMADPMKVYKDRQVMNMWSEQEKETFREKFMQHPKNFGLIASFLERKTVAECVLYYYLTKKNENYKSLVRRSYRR

Nc1cc(F)ccc1NC(=O)c1ccc(CNC(=O)/C=C/c2cccnc2)cc1 [HBI-8000, N-(2-amino-4-fluorophenyl)-4-[[[(2E)-1-oxo-3-(3-pyridinyl)-2-propen-1-yl]amino]methyl]benzamide]
inhibition of HDAC 10 [1]: low nanomolar concentrations
activity at HDAC 10 compared with Entinostat ([1]; versus Entinostat): more active than Entinostat
inhibition of HDAC 1 [2]: low nanomolar concentrations
activity at HDAC 1 compared with Entinostat ([2]; versus Entinostat): more active than Entinostat
activity at HDAC 8 [3]: has activity
activity at HDAC 8 compared with Entinostat ([3]; versus Entinostat): more active than Entinostat
inhibition of HDAC 3 [4]: low nanomolar concentrations
activity at HDAC 3 compared with Entinostat ([4]; versus Entinostat): more active than Entinostat
Median TTE [5, 6]: 18.9 days
% TGD [5, 6]: −8%
Median TTE [5, 7]: 22.8 days
% TGD [5, 7]: 11%
